Results from patent publication US20240252673A1, “ANTI-TISSUE FACTOR ANTIBODY-DRUG CONJUGATES AND THEIR USE IN THE TREATMENT OF CANCER” (priority 2017, published 2024).

Legend:
Type in all cases: in vivo, human
[1] = test system: relapsed, recurrent and/or metastatic cervical cancer; assay: Phase IIa single arm trial: anti-tumor activity per RECIST v1.1
[2] = Phase I/II dose-escalation study: plasma pharmacokinetics; details: cycle 1, plasma, geometric mean (% CV)
Protocol: (§1) A first-in-human phase I/II dose-escalating study following a 3+3 dose-escalation design was conducted in order to test the safety of tisotumab vedotin in 27 subjects with locally advanced and/or metastatic cancer of various types including cervical cancer (FIG. 2). Tisotumab vedotin was administered by intravenous infusion at doses ranging from 0.3 mg/kg to 2.2 mg/kg on day 1 of a 21-day cycle for four cycles (i.e., each treatment cycle was 3 weeks). Patients with stable disease (SD) or better at the end of four cycles had the option to continue treatment with tisotumab vedotin for eight additional cycles (FIG. 2). Tumor evaluations were performed by CT scans every six weeks. In order to qualify for SD, results of the CT scan scheduled for week six needed to be SD or better. Two CT scans were performed outside the per-protocol defined window.
(§2) A primary objective of the study was to assess the safety and tolerability in a mixed population of patients with specified solid tumors. Adverse event (AE) severity was graded according to Common Terminology Criteria for Adverse Events (CTCAE) version 4.03. Secondary objectives of the study included determining the pharmacokinetic (PK) profile of tisotumab vedotin and preliminary evaluation of anti-tumor activity as assessed according to Response Evaluation Criteria in Solid Tumors [RECIST] version 1.1. Dose-limiting toxicities (DLTs) were determined during the first cycle and were defined as grade≥3 events possibly related to tisotumab vedotin. […] Tumor biopsies were required at baseline for TF expression which was assessed by immunohistochemistry utilizing tisotumab. TF staining intensity was determined using the H-scoring system.
The geometric means (% CV) of the time to reach Cmax (Tmax)(hr), maximum concentration (Cmax)(ng/mL), and area under the concentration time curve (AUC)0-t (hr*ng/mL) was measured for the pharmacokinetics (PK) portion of the study (Table 3). Low levels of unconjugated MMAE were measured in systemic circulation (FIG. 4).

[3] = test system: relapsed, recurrent and/or metastatic cervical cancer; assay: Phase IIa single arm trial: anti-tumor activity per RECIST v1.1; details: 2.0 mg/kg q3w
Protocol: A Phase IIa single arm, multicenter trial investigated the efficacy, safety and tolerability of 2.0 mg/kg tisotumab vedotin in patients with relapsed, recurrent and/or metastatic cervical cancer. A total of 34 patients (n=34) were enrolled and received at least 1 dose of tisotumab vedotin. Each eligible patient was assigned to receive an intravenous (IV) infusion dose of tisotumab vedotin at a concentration of 2.0 mg/kg on day 1 of a 21-day cycle (i.e., each treatment cycle was 3 weeks (q3w)).
A primary objective of the study was to assess safety and tolerability of tisotumab vedotin. Adverse event (AE) severity was graded according to CTCAE version 4.03. A secondary objective was preliminary evaluation of anti-tumor activity durability as assessed according to RECIST version 1.1. Tumor evaluations were performed by CT scans every six weeks.

[4] = test system: locally advanced and/or metastatic cancer of various types including cervical cancer; assay: Phase I/II dose-escalation study: anti-tumor activity per RECIST v1.1 (CT scans every six weeks)
Protocol: as §1, §2

[5] = Patient 2, cervical cancer, 1.2 mg/kg

## tisotumab vedotin
[1]; 2.0 mg/kg q3w, N = 34
  Median DoR: 8.3 months
  Objective response rate (ORR): 11 n
[1]; 2.0 mg/kg q3w, N = 34, clinical benefit after 12 weeks
  DCR (CR + PR + SD): 17 n
[1]; expanded cohort, all efficacy-evaluable patients, N 51
  ORR, combined unconfirmed + confirmed: 16 N
[1]; expanded cohort, all efficacy-evaluable patients, N 51, 95% CI 19-46
  ORR, combined unconfirmed + confirmed: 31%
[1]; histology Adenocarcinoma, N 18
  ORR, combined unconfirmed + confirmed: 4 N
[1]; histology Adenocarcinoma, N 18, 95% CI 6-48
  ORR, combined unconfirmed + confirmed: 22%
[1]; histology Adenosquamous, N 4
  ORR, combined unconfirmed + confirmed: 2 N
[1]; histology Adenosquamous, N 4, 95% CI 7-93
  ORR, combined unconfirmed + confirmed: 50%
[1]; histology Other, N 2
  ORR, combined unconfirmed + confirmed: 1 N
[1]; histology Other, N 2, 95% CI 1-99
  ORR, combined unconfirmed + confirmed: 50%
[1]; histology Squamous, N 27
  ORR, combined unconfirmed + confirmed: 9 N
[1]; histology Squamous, N 27, 95% CI 17-54
  ORR, combined unconfirmed + confirmed: 33%
[1]; prior GOG 240 regimen No, N 14
  ORR, combined unconfirmed + confirmed: 4 N
[1]; prior GOG 240 regimen No, N 14, 95% CI 8-58
  ORR, combined unconfirmed + confirmed: 29%
[1]; prior GOG 240 regimen Yes, N 37
  ORR, combined unconfirmed + confirmed: 12 N
[1]; prior GOG 240 regimen Yes, N 37, 95% CI 18-50
  ORR, combined unconfirmed + confirmed: 32%
[1]; prior bevacizumab No, N 11
  ORR, combined unconfirmed + confirmed: 4 N
[1]; prior bevacizumab No, N 11, 95% CI 11-69
  ORR, combined unconfirmed + confirmed: 36%
[1]; prior bevacizumab Yes, N 40
  ORR, combined unconfirmed + confirmed: 12 N
[1]; prior bevacizumab Yes, N 40, 95% CI 17-47
  ORR, combined unconfirmed + confirmed: 30%
[1]; prior lines of systemic therapy 1, N 23
  ORR, combined unconfirmed + confirmed: 8 N
[1]; prior lines of systemic therapy 1, N 23, 95% CI 16-57
  ORR, combined unconfirmed + confirmed: 35%
[1]; prior lines of systemic therapy 2, N 17
  ORR, combined unconfirmed + confirmed: 6 N
[1]; prior lines of systemic therapy 2, N 17, 95% CI 14-62
  ORR, combined unconfirmed + confirmed: 35%
[1]; prior lines of systemic therapy 3-4, N 11
  ORR, combined unconfirmed + confirmed: 2 N
[1]; prior lines of systemic therapy 3-4, N 11, 95% CI 2-52
  ORR, combined unconfirmed + confirmed: 18%
[1]; prior taxane No, N 3
  ORR, combined unconfirmed + confirmed: 1 N
[1]; prior taxane No, N 3, 95% CI 1-91
  ORR, combined unconfirmed + confirmed: 33%
[1]; prior taxane Yes, N 48
  ORR, combined unconfirmed + confirmed: 15 N
[1]; prior taxane Yes, N 48, 95% CI 19-46
  ORR, combined unconfirmed + confirmed: 31%
[2]; 0.3 mg/kg, N 3
  AUC0-t: 59216.8 (3%) hr * ng/ml
  Cmax: 4782.7 (12%) ng/ml
  Tmax: 1.5 (73%) hr
[2]; 0.6 mg/kg, N 3
  AUC0-t: 368432.7 (8%) hr * ng/ml
  Cmax: 12195.3 (10%) ng/ml
  Tmax: 1.2 (13%) hr
[2]; 0.9 mg/kg, N 3
  AUC0-t: 601926.2 (17%) hr * ng/ml
  Cmax: 19811.6 (17%) ng/ml
  Tmax: 1.3 (12%) hr
[2]; 1.2 mg/kg, N 3
  AUC0-t: 1084672.7 (9%) hr * ng/ml
  Cmax: 34673.1 (19%) ng/ml
  Tmax: 1.3 (12%) hr
[2]; 1.5 mg/kg, N 3
  AUC0-t: 794988.4 (19%) hr * ng/ml
  Cmax: 23115.6 (21%) ng/ml
  Tmax: 1.1 (9.6%) hr
[2]; 1.8 mg/kg, N 3
  AUC0-t: 1504823.8 (50%) hr * ng/ml
  Cmax: 35416.3 (39%) ng/ml
  Tmax: 1.2 (14%) hr
[2]; 2.0 mg/kg, N 3
  AUC0-t: 1256379.7 (33%) hr * ng/ml
  Cmax: 32296.1 (22%) ng/ml
  Tmax: 1.2 (8%) hr
[2]; 2.2 mg/kg, N 6
  AUC0-t: 2037070.5 (34%) hr * ng/ml
  Cmax: 55530.3 (10%) ng/ml
  Tmax: 1.1 (13%) hr
[3]; 34 patients
  patients withdrew from treatment due to disease progression: 16 n
[3]; N = 34
  Median DoR for confirmed and unconfirmed responses: ^eMedian DoR of 5.4 months for confirmed and unconfirmed responses.
  Median PFS: 6.4 months
  confirmed PR: 8
[3]; N = 34, 1 of which is still ongoing
  unconfirmed PR: 3
[3]; N = 34, 95% Confidence interval 17%-50%
  Objective response rate (ORR): 32 % of total patients
[3]; N = 34, clinical benefit after 12 weeks, 95% Confidence interval 35%-65%
  DCR (CR + PR + SD): 50 % of total patients
[3]; cervical cancer cohort
  efficacy, overall conclusion: robust efficacy
[4]; 0.3 mg/kg (n = 3)
  Confirmed Response per RECIST v1.1: Complete response (CR): 0 n
  Confirmed Response per RECIST v1.1: Not evaluable: 0 n
  Confirmed Response per RECIST v1.1: Partial response (PR): 0 n
[4]; 0.6 mg/kg (n = 3)
  Confirmed Response per RECIST v1.1: Complete response (CR): 0 n
  Confirmed Response per RECIST v1.1: Partial response (PR): 0 n
[4]; 0.9 mg/kg (n = 3)
  Confirmed Response per RECIST v1.1: Complete response (CR): 0 n
  Confirmed Response per RECIST v1.1: Not evaluable: 0 n
  Confirmed Response per RECIST v1.1: Partial response (PR): 0 n
[4]; 1.2 mg/kg (n = 3)
  Confirmed Response per RECIST v1.1: Complete response (CR): 0 n
  Confirmed Response per RECIST v1.1: Not evaluable: 0 n
[4]; 1.5 mg/kg (n = 3)
  Confirmed Response per RECIST v1.1: Complete response (CR): 0 n
  Confirmed Response per RECIST v1.1: Not evaluable: 0 n
  Confirmed Response per RECIST v1.1: Partial response (PR): 0 n
[4]; 1.8 mg/kg (n = 3)
  Confirmed Response per RECIST v1.1: Complete response (CR): 0 n
  Confirmed Response per RECIST v1.1: Not evaluable: 0 n
  Confirmed Response per RECIST v1.1: Partial response (PR): 0 n
  Confirmed Response per RECIST v1.1: Progressive disease (PD): 0 n
[4]; 2.0 mg/kg (n = 3)
  Confirmed Response per RECIST v1.1: Complete response (CR): 0 n
  Confirmed Response per RECIST v1.1: Not evaluable: 0 n
  Confirmed Response per RECIST v1.1: Partial response (PR): 0 n
[4]; 2.2 mg/kg (n = 6)
  Confirmed Response per RECIST v1.1: Complete response (CR): 0 n
  Confirmed Response per RECIST v1.1: Not evaluable: 0 n
  Confirmed Response per RECIST v1.1: Partial response (PR): 0 n
[4]; Patient 1, cervical cancer, 2.2 mg/kg
  reduction in tumor size relative to baseline: about 20%
[4]; [5]
  best response: confirmed PR
  continued benefit, total duration: 15 months
[4]; Patient 2, stage 4 cervical cancer, 3 prior lines, 1.2 mg/kg
  reduction in tumor size relative to baseline (target lesion): about 51%
[4]; all doses (n = 27)
  Confirmed Response per RECIST v1.1: Complete response (CR): 0 n
[4]; all doses, 26 patients evaluated
  disease control rate (DCR; PR+SD): 46%
[4]; all doses, 27 patients
  patients withdrew from treatment due to disease progression: 67%
[4]; all doses, out of 26 patients
  disease control rate (DCR; PR+SD), patients: 12 patients
